{"source": "patent US20110059886A1", "about": "“HCV NS3-NS4A Protease Inhibition” (priority 2004, published 2011)", "key": {"[1]": {"molecular_target": "T1, HCV NS3 protease genotype 2a (Hepatitis C virus genotype 2a, UniProt P26660, L1043K/T1046A/V1183I)", "T1 construct": "DNA fragment encoding residues Ala^1-Ser^181 of several isolates of genotype 2a or 2b; hexa-histidine (C); made in house; host or cells: E. coli BL21/DE3 pLysS", "assay": "Kinetic parameters of NS5AB substrate, HPLC peptide cleavage assay", "format": "biochemical", "experimental": "(§1) Peptide sequences are shown below.\n(§2) For determination of the kinetic parameters Km and Vmax, the NS5AB substrate was varied between 3 μM and 200 μM. The ratio of the product peak area to the reaction time yielded a rate of enzyme catalyzed hydrolysis. These rate vs. substrate concentration data points were fit to the Michaelis-Menten equation using non-linear regression. The value of kcat was determined from Vmax using the nominal protease concentration and a fully cleaved substrate peptide as an instrument calibration standard."}, "[2]": {"molecular_target": "T2, HCV NS3 protease genotype 3a (Hepatitis C virus genotype 3a, UniProt Q81258, I1084M/L1045K/S1134A/S1198A)", "T2 construct": "DNA fragment encoding residues Ala^1-Ser^181 of several isolates of genotype 2a or 2b; hexa-histidine (C); made in house; host or cells: E. coli BL21/DE3 pLysS", "T2 sequence (Q81258 1033-1213, looked up, stated change not applied, other chains not shown)": "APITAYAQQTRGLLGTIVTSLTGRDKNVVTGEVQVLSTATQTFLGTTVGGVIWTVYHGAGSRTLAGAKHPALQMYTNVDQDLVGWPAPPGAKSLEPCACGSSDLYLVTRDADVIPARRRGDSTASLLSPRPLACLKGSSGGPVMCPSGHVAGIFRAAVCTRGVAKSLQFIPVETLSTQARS", "assay": "Kinetic parameters of NS5AB substrate, HPLC peptide cleavage assay", "format": "biochemical", "experimental": "as §1, §2"}, "[3]": {"molecular_target": "T1, HCV NS3 protease genotype 2a", "assay": "Inhibition constant from steady-state rates of progress curves", "format": "biochemical", "details": "steady-state portion of progress curves, Morrison fit, read-out: Ki using steady-state rates", "experimental": "(§3) The rates of onset of slow binding inhibition were determined by a modification of the method for measurement of progress curves described by Narjes et al. [Narjes F. et al., Biochemistry 39, pp. 1849-1861 (2000)]. […] The reaction was initiated by addition of an aliquot of pre-heated enzyme stock to the compound-substrate mixture to yield final concentrations of 6 to 12 μM RET-S1 and 0.5 nM to 4 nM HCV NS3 protease. […] T., Adv. Enzymol. Relat. Areas Mol. Biol. 61, pp. 201-301 (1988)].\n(§4) Biophys. Acta. 874, pp. 44-53 (1986)]."}, "[4]": {"molecular_target": "T2, HCV NS3 protease genotype 3a", "assay": "Inhibition constant from steady-state rates of progress curves", "format": "biochemical", "details": "steady-state portion of progress curves, Morrison fit, read-out: Ki using steady-state rates", "experimental": "as §3, §4"}, "[5]": {"system": "Cells containing hepatitis C virus (HCV) replicon", "assay": "HCV replicon cell assay", "format": "cell-based", "details": "48 h, read-out: (concentration at which 50% inhibition of HCV RNA level is observed)", "experimental": "Cells were obtained according to the method of Lohmannn et al., Science, 285, pp. 110-113 (1999). Cells containing hepatitis C virus (HCV) replicon were maintained in DMEM containing 10% fetal bovine serum (FBS), 0.25 mg per ml of G418, with appropriate supplements (media A).\nOn day 1, replicon cell monolayer was treated with a trypsin:EDTA mixture, removed, and then media A was diluted into a final concentration of 100,000 cells per ml wit. 10,000 cells in 100 ul were plated into each well of a 96-well tissue culture plate, and cultured overnight in a tissue culture incubator at 37° C.\nOn day 2, compounds (in 100% DMSO) were serially diluted into DMEM containing 2% FBS, 0.5% DMSO, with appropriate supplements (media B). The final concentration of DMSO was maintained at 0.5% throughout the dilution series. […]\nA Taqman real-time RT-PCR quantification assay was set up with two sets of specific primers and probe. […] Total RNA extractants from treated HCV replicon cells was added to the PCR reactions for quantification of both HCV and BVDV RNA in the same PCR well. […] The level of HCV RNA in each well was calculated according to a standard curve run in the same PCR plate. The percentage of inhibition or decrease of HCV RNA level due to compound treatment was calculated using the DMSO or no compound control as 0% of inhibition. […]"}, "[6]": {"molecular_target": "T1, HCV NS3 protease genotype 2a", "assay": "Fluorescence peptide assay, potency with extended incubation", "format": "biochemical", "details": "IC50 after extended preincubation taken as Ki of tightly bound complex, read-out: Ki following extended incubation"}, "[7]": {"molecular_target": "NS3/4A protease", "details": "WO 02/018369, cited from earlier work"}, "[8]": {"molecular_target": "T1, HCV NS3 protease genotype 2a", "assay": "HPLC peptide cleavage assay, apparent Ki", "format": "biochemical", "details": "15 min preincubation, NS5AB at Km", "text": "as §1, §4"}, "[9]": {"molecular_target": "T2, HCV NS3 protease genotype 3a", "assay": "HPLC peptide cleavage assay, apparent Ki", "format": "biochemical", "details": "15 min preincubation, NS5AB at Km", "text": "as §1, §4"}, "[10]": {"molecular_target": "T2, HCV NS3 protease genotype 3a", "assay": "Progress curve analysis of slow binding inhibition", "format": "biochemical", "description": "(§5) F(t)=Vs×t+(Vi−Vs)×(1−exp (−kobs×t))/kobs+C Equation 1:\n(§6) kobs=koff+(kon×[I])/(1+[S]/Km) Equation 2:"}, "[11]": {"molecular_target": "NS3-4A serine protease (Hepatitis C virus genotype 1a, UniProt P27958)", "sequence (P27958 1027-1208, other chains not shown)": "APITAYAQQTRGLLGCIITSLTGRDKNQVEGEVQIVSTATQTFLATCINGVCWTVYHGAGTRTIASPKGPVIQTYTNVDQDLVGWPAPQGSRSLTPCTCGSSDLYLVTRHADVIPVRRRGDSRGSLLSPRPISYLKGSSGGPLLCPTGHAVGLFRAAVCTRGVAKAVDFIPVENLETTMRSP", "assay": "Enzyme assays with KK-4A peptide and FRET substrate, mode of binding"}, "[12]": {"molecular_target": "T2, HCV NS3 protease genotype 3a", "assay": "Fluorescence peptide assay, potency with extended incubation", "format": "biochemical", "details": "IC50 after extended preincubation taken as Ki of tightly bound complex, read-out: Ki following extended incubation"}, "[13]": {"molecular_target": "T1, HCV NS3 protease genotype 2a", "assay": "Progress curve analysis of slow binding inhibition", "format": "biochemical", "description": "as §5, §6"}, "[14]": {"system": "CC[C@H](NC(=O)[C@@H](NC(=O)[C@@H](NC(=O)[C@H](CC(=O)O)NC(=O)[C@@H](N)CCC(=O)O)C(C)C)C(C)C)C(=O)N[C@@H](CS)C(=O)N[C@@H](CO)C(=O)N[C@@H](CCSC)C(=O)N[C@@H](CO)C(=O)N[C@@H](Cc1ccc(O)cc1)C(=O)O", "assay": "purified protein, by the assay type", "details": "other: genotype 1a; NS5AB substrate; pH 7.8; 40.0 °C"}, "[15]": {"molecular_target": "RET-S1 fluorescent peptide (AnaSpec, San Jose, Calif.)"}, "[16]": {"molecular_target": "NS5AB peptide substrate, based on the NS5A/NS5B cleavage site for genotype 1a HCV"}}, "note": "pIC50, pKi: −log10 of the molar value. Like-named read-outs stand apart in the source and are kept apart here. Non-standard residues stand in square brackets, D forms with d. Residues, ends and D or L forms follow the SMILES beside them. Abu = CC[C@H](N)C(=O)O", "data": [{"compound": "CC[C@H](NC(=O)[C@@H](NC(=O)[C@@H](NC(=O)[C@H](CC(=O)O)NC(=O)[C@@H](N)CCC(=O)O)C(C)C)C(C)C)C(=O)N[C@@H](CS)C(=O)N[C@@H](CO)C(=O)N[C@@H](CCSC)C(=O)N[C@@H](CO)C(=O)N[C@@H](Cc1ccc(O)cc1)C(=O)O", "note": "[NS5AB, NH2-EDVV-(alpha)Abu-CSMSY-COOH] (H-EDVV[Abu]CSMSY-OH)", "values": [{"measurement": "Km", "setting": "[1]", "value": 11, "unit": "µM"}, {"measurement": "Km", "setting": "[2]", "value": 70, "unit": "µM"}]}, {"compound": "CCC[C@H](NC(=O)[C@@H]1[C@H]2CCC[C@H]2CN1C(=O)[C@@H](NC(=O)[C@@H](NC(=O)c1cnccn1)C1CCCCC1)C(C)(C)C)C(=O)C(=O)NC1CC1", "note": "[VX-950]", "values": [{"measurement": "pKi", "setting": "[3]", "value": 7.49}, {"measurement": "pKi", "setting": "[4]", "value": 6.57}, {"measurement": "pIC50", "setting": "[5]", "value": 6.45}, {"measurement": "pKi", "setting": "[6]", "value": 7.43}, {"measurement": "pKi", "setting": "[7]; read-out: Ki", "value": 8.10}, {"measurement": "pKi", "setting": "[7]; read-out: steady state binding constant (ki*)", "value": 8.52}, {"measurement": "pKi", "setting": "[8]", "value": 7.40}, {"measurement": "pKi", "setting": "[9]", "value": 6.19}, {"measurement": "pKi", "setting": "[10]", "value": 6.36}, {"measurement": "mode of binding to the NS3-4A serine protease", "setting": "[11]", "value": "reversible, covalent, competitive, tight and slow binding"}, {"measurement": "pKi", "setting": "[12]", "value": 6.34}, {"measurement": "pKi", "setting": "[13]", "value": 7.17}]}, {"compound": "HCV NS3 protease genotype 1a (Hepatitis C virus (isolate H77))", "values": [{"measurement": "Km", "setting": "[14]", "value": 25, "unit": "µM"}, {"measurement": "kcat/Km", "setting": "[14]", "value": 30000, "unit": "M⁻¹ s⁻¹"}]}, {"compound": "HCV NS3 protease, genotype 1a (enzyme)", "values": [{"measurement": "kcat/Km", "setting": "[15]", "value": 170000, "unit": "M⁻¹ s⁻¹"}, {"measurement": "kcat/Km", "setting": "[16]", "value": 30000, "unit": "M⁻¹ s⁻¹"}]}, {"compound": "HCV NS3 serine protease domain, genotype 2a consensus sequence (enzyme)", "values": [{"measurement": "kcat/Km", "setting": "[15]", "value": 65000, "unit": "M⁻¹ s⁻¹"}, {"measurement": "kcat/Km", "setting": "[16]", "value": 31000, "unit": "M⁻¹ s⁻¹"}]}, {"compound": "HCV NS3 serine protease domain, genotype 3a consensus sequence (enzyme)", "values": [{"measurement": "kcat/Km", "setting": "[15]", "value": 22000, "unit": "M⁻¹ s⁻¹"}, {"measurement": "kcat/Km", "setting": "[16]", "value": 5200, "unit": "M⁻¹ s⁻¹"}]}]}
